Active and inactive are the calls of the source. How the calls were made is not given here.
Key:
[1] = molecular target: Metabotropic glutamate receptor 7 (Rattus norvegicus) (UniProt P35400); assay: potentiation of glutamate EC20 at mGlu7 – cell-based, calcium mobilization, Galpha15, dose response (AID 743384); details: mGlu7/Ga15, calcium fluorescence PAM; stronger effect = higher value
[2] = molecular target: Metabotropic glutamate receptor 7 (Homo sapiens) (UniProt Q14831); assay: as above; details: mGlu7/Ga15, calcium fluorescence PAM
Chain of Metabotropic glutamate receptor 7 (Homo sapiens) (Q14831 whole entry, looked up): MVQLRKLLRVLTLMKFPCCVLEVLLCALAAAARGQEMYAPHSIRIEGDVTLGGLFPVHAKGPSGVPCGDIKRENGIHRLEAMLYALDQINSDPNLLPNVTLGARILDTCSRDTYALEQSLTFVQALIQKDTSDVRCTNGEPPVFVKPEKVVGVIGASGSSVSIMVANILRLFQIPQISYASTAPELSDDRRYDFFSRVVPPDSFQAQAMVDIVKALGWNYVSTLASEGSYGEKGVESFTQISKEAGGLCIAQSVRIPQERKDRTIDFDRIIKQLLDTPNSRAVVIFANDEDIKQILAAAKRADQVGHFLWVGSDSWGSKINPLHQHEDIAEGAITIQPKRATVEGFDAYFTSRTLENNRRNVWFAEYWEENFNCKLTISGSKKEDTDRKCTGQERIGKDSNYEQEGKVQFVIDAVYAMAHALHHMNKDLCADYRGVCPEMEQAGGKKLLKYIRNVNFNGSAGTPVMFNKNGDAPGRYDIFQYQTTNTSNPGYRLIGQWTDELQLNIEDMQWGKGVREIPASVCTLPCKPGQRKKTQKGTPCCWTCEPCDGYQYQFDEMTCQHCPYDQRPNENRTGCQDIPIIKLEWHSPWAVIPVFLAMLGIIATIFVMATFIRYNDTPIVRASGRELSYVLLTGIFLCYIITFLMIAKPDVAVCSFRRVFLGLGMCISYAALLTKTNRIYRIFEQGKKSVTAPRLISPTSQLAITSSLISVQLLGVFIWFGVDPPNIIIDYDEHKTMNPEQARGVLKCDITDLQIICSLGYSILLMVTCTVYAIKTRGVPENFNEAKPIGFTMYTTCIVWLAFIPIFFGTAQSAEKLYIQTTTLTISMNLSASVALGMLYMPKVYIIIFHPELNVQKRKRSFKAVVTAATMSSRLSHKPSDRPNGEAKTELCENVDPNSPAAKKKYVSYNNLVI

Chain of Metabotropic glutamate receptor 7 (Rattus norvegicus) (P35400 whole entry, looked up): as the sequence (Q14831 whole entry, looked up) above, with R5G, A27V, N454H, S488T, A520S, D578N counted along it

Compound | % glutamate max response [1] | EC50 [2]
COC(=O)c1ccc(-n2c(C)cc(C(=O)COc3cccc(N(C)C)c3)c2C)cc1 | inactive | –
CCOc1ccc(-n2c(C)cc(C(=O)CSc3ccc(OC)cc3)c2C)cc1 | inactive | –
COC(=O)c1ccc(-n2c(C)cc(C(=O)CSc3ccc(NC(C)=O)cc3)c2C)cc1 | – | 1500 nM
COC(=O)c1ccc(-n2c(C)cc(C(=O)CNc3ccc(C(=O)O)cc3)c2C)cc1 | inactive | –

From PubChem BioAssay AID743384 (Vanderbilt Specialized Chemistry Center, 2014)
